Data on 14 compounds can be found in patent US12043602B2, “Fendiline derivatives” (The Board of Regents of the University of Texas System, priority 2019, dated 2024).

Molecules are shown by their SMILES. pEC50: −log10 of the molar value.

The target of one data set is mGFP-K-RASG12V (Homo sapiens (Human), UniProt P01116, G12V). The data set can be described thus: K-Ras mislocalization assay (confocal microscopy, Manders coefficient). Further details: key to Emax: Manders coefficient: fraction of mCherry-CAAX co-localizing with GFP-K-Ras. The note with it: MDCK cells; for IC50: 48 h treatment, read-out: IC50 (μM), KRASG12V mislocalization; for Emax: maximal effect, Manders coefficient; for Emax / pEC50: 48 h; for pEC50: batch 4 compounds, title calls it IC50, read-out: EC50. Type of data set: cell-based. The procedure, abridged:
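Readout is the Manders coefficient: share of mCherry-CAAX overlapping mGFP-K-RASG12V in confocal images, proportional to K-Ras mislocalization. Stable MDCK co-expressing lines were exposed 48 h to various drug concentrations or 0.1% DMSO vehicle, then paraformaldehyde-fixed.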

Data set [1] has as its system MiaPaCa-2 (Mut) pancreatic tumor cells. The data set can be described thus: CyQUANT proliferation assay. Type of data set: cell-based. Further details: key to IC50 proliferation MiaPaCa-2 (Mut): NE—Not efficacious. To be noted: 72 h. The procedure: (§1) Madine Darby Canine Kidney epithelial cells (MDCK) stably co-expressing mGFP-tagged full length oncogenic mutant K-Ras (GFP—K-RASG12V) or mGFP-LactC2 (peptide probe for phosphatidylserine) and mCherry-tagged to the amino acids 179-189 of H-RasC181S, C184S (mCherry-CAAX, localizes primarily to endomembranes) were grown in DMEM-high glucose/sodium pyruvate/10% FBS. The medium was supplemented with 1× Penicillin/Streptomycin for fluorescence microscopy assays, to avoid any microbial contamination from the test compounds added. KLE and Hec50 cells were maintained in DMEM-F-12 medium supplemented with 10% FBS. Hec-1A and Hec-1B cells were grown in McCoy's 5a medium supplemented with 10% FBS. ESS-1 cells were grown in RPMI 1640 medium supplemented with 20% FBS. MPanc96 cells were grown in DMEM supplemented with 10% FBS, MiaPaCa-2 cells in DMEM supplemented with 10% FBS and 2.5% horse serum and all other cell lines were grown in RPMI 1640 supplemented with 10% FBS. All cancer cell media were supplemented with ×Penicillin/Streptomycin. All cell lines were grown at 37° C. with 5% CO2.
(§2) Cells were seeded in 96-well plates. After 24 h, fresh growth medium supplemented with 0.1% vehicle (DMSO), or various concentrations of drugs was added and cells were grown for 72 h. Cell numbers were quantified using the CyQUANT® Cell Proliferation Assay Kit (Molecular Probes, Life Technologies), according to the manufacturer's protocol. Fluorescence measurement was used as a measure of live cell number.

The test system of data set [2] is MOH (Mut) pancreatic tumor cells. In words: CyQUANT proliferation assay. Type of data set: cell-based. Further details: key to IC50 proliferation MOH (Mut): NE—Not efficacious. To be noted: 72 h. The method, then: as §1, §2
Data set [3] has as its system MPanc96 (Mut) pancreatic tumor cells. In words: CyQUANT proliferation assay. Type of data set: cell-based. Further details: key to IC50 proliferation MPanc96 (Mut): NE—Not efficacious. To be noted: 72 h. The method, then:
as §1, §2

In data set [4] the test system is MDCK cells co-expressing GFP-K-RASG12V and mCherry-CAAX. In words: Cytotoxicity in mislocalization screen (death of all cells in well). To be noted: drug caused death of all cells in well at 30 μM.
Data set [5] deals with ESS-1 (WT) endometrial tumor cells. The data set can be described thus: CyQUANT proliferation assay. Type of data set: cell-based. Further details: key: NE—Not efficacious. To be noted: 72 h. The procedure: as §1, §2
The test system of data set [6] is Ishikawa (WT) endometrial tumor cells. The data set can be described thus: CyQUANT proliferation assay. Type of data set: cell-based. Further details: key to IC50 proliferation Ishikawa (WT): NE—Not efficacious. The note with it: 72 h. The method, then: as §1, §2
A further data set has as its system MiaPaCa-2 tumors. In words: In vivo tumor growth assay (xenograft). Further details: species or system nu/nu mice. The note with it: MiaPaCa2 xenografts in nude mice. The procedure: In Vivo Tumor Growth Assay. All animal studies were performed under an Institutional Animal Care and Use Committee (IACUC) approved animal protocol (AWC-15-0101), in accordance with the National Institutes of Health Guide for the Care and Use of Laboratory Animals. Early passage MiaPaCa-2 cells were harvested, and 2×10^6 cells were implanted into the right flanks of female nu/nu mice. The animals were randomized into control and treated groups (10 mice per group). Tumor volume (V) was measured with an external caliper every 3-4 days and it was calculated as V=0.52 (length×width2). Compound treatment was initiated when the tumor sizes reached 100 mm3. Compounds (12.5 mg/kg) were injected daily intraperitoneally for 5 days, with 2 days of no treatment in between. All treatments were continued until any of the subcutaneous tumors reached 1500 mm3 in volume, when all the animals were sacrificed, and the tumors removed.
Early passage BxPC-3 or MIAPaCa-2 cells were harvested, and 2-3X106 cells were implanted into the right flanks of nu/nu mice. The animals were randomized into control and treated groups (10 mice per group). Tumor volume (V) was measured with an external caliper every 3-4 days and it was calculated as V=0.52 (length×width2). Drug treatment was initiated 4 days after tumor implantation. Drugs were injected daily intraperitoneally (at doses indicated) for 5 days, with 2 days of no treatment in between. All treatments were continued until any of the subcutaneous tumors reached 1500 mm3 in volume or for 6 weeks (whichever was first), when all the animals were sacrificed and the tumors removed.
Next the effect of the selected PMLIs on the growth of oncogenic KRAS expressing MiaPaCa-2 cells implanted subcutaneously into the flanks of nu/nu immunosuppressed mice was determined. […] The animals were randomized into control and PMLI-treated groups (10 mice per group). Treatment was initiated when the tumors reached a mean volume of 100 mm^3. PMLIs were tested at 12.5, 7.5, 5, 2.5 and 1 mg/kg doses, administered once daily intraperitoneally for 5 days, with 2 days of no treatment in between for the duration of the experiment. […] There was no observed toxicity detected in any of the compound-treated groups during the experiment and, accordingly, there was no significant difference in the body weight of the animals in the different groups.

For data set [7], the system named is KLE (WT) endometrial tumor cells. In words: CyQUANT proliferation assay. Further details: key: NE—Not efficacious. Type of data set: cell-based. The note with it: 72 h. The procedure: as §1, §2
The subject of data set [8] is BxPC-3 (WT) pancreatic tumor cells. The data set can be described thus: CyQUANT proliferation assay. Type of data set: cell-based. Further details: key to IC50 proliferation BxPC-3 (WT): NE—Not efficacious. The note with it: 72 h. The method, then: as §1, §2

On to `COc1ccc([C@@H](C)N(CC=C(c2ccccc2)c2ccccc2)C(=O)NC(C)(C)C)cc1` [NY0428, (R)-3-tert-butyl-1-(3,3-diphenylallyl)-1-(1-(4-methoxyphenyl)ethyl)urea], for which, at mGFP-K-RASG12V, the half-inhibitory concentration (IC50) (usually the midpoint of a concentration-inhibition curve) stood at 0.29 µM and the Emax is given as 0.891. For the same compound, the “IC50 proliferation MiaPaCa-2 (Mut)” value in [1] is given as “NE”. The “IC50 proliferation MOH (Mut)” value in [2] is on record as “NE”. The “IC50 proliferation MPanc96 (Mut)” value in data set [3] is “NE”. Moreover, in data set [4], the “Cytotoxic at 30 μM” value is on record as “No”.
Turning to `C(CN(CCN1CCCC1)C1(c2ccccc2)CC1)=C(c1ccccc1)c1ccccc1` [NY0444, N-(3,3-diphenylallyl)-1-phenyl-N-(2-(pyrrolidin-1-yl)ethyl)cyclopropanamine], at mGFP-K-RASG12V, the IC50 was found to be 0.73 µM and the Emax is recorded as 0.732. In addition, the “IC50 proliferation ESS-1 (WT)” value in data set [5] is given as “NE”. Further, the “IC50 proliferation Ishikawa (WT)” value in data set [6] is on record as “NE”. Also, the “Cytotoxic at 30 μM” value in [4] is given as “Yes”.
As for `C[C@H](c1ccc(F)cc1)N(CC=C(c1ccccc1)c1ccccc1)CCN1CCCC1` [NY0506, (R)-N-(1-(4-fluorophenyl)ethyl)-3,3-diphenyl-N-(2-(pyrrolidin-1-yl)ethyl)prop-2-en-1-amine], at mGFP-K-RASG12V, the pEC50 (commonly −log10 of the EC50, conventionally taken in molar units) was 6.28 and the Emax is 0.808. Further, in the data set with MiaPaCa-2 tumors, the “minimum effective dose on tumor growth relative to fendiline” value was “more potent than fendiline”. For the same compound, the “Cytotoxic at 30 μM” value in [4] is given as “Yes”.
As for `C[C@H](c1ccccc1)N(CC=C(c1ccccc1)c1ccccc1)CCN1CCN(C)CC1` [NY0513, (R)-N-(2-(4-methylpiperazin-1-yl)ethyl)-3,3-diphenyl-N-(1-phenylethyl)prop-2-en-1-amine], on mGFP-K-RASG12V, the IC50 is 0.6 µM, the negative-log EC50 (pEC50) was 6.19 and the Emax came out at 0.786. Also, the Emax at mGFP-K-RASG12V (listed as 15d) is 0.79 ± 0.01. In [7], the “IC50 proliferation KLE (WT)” value is given as “NE”. In addition, in [4], the “Cytotoxic at 30 μM” value is “Yes”.
With `C(CNC1(c2ccccc2)CC1)=C(c1ccccc1)c1ccccc1` [NY040402, N-(3,3-diphenylallyl)-1-phenylcyclopropanamine], at mGFP-K-RASG12V, the IC50 stood at 0.2 µM and the Emax was found to be 0.835. Besides, the “IC50 proliferation BxPC-3 (WT)” value in data set [8] is listed as “NE”. For the same compound, in data set [1], the “IC50 proliferation MiaPaCa-2 (Mut)” value is “NE”. Besides, the “IC50 proliferation MOH (Mut)” value in data set [2] is listed as “NE”. Moreover, the “IC50 proliferation MPanc96 (Mut)” value in [3] is “NE”. Besides, the “Cytotoxic at 30 μM” value in [4] was “No”.
Take `COc1ccc(-c2cc(C(=O)N(CCN3CCCC3)[C@H](C)c3ccc(F)cc3)no2)cc1` [PW323, (R)-N-(1-(4-Fluorophenyl)ethyl)-5-(4-methoxyphenyl)-N-(2-(pyrrolidin-1-yl)ethyl)isoxazole-3-carboxamide]: on mGFP-K-RASG12V, the half-inhibitory concentration (IC50) stood at 0.05 µM and the Emax worked out at 0.852. In addition, the “minimum effective dose on tumor growth relative to fendiline” value with MiaPaCa-2 tumors is listed as “more potent than fendiline”. Besides, the “Cytotoxic at 30 μM” value in data set [4] is on record as “Yes”.
With `COc1ccc(C(=CCN(CCN2CCCC2)[C@H](C)c2ccc(F)cc2)c2ccc(OC)cc2)cc1` [PW356, (R)-N-(1-(4-Fluorophenyl)ethyl)-3,3-bis(4-methoxyphenyl)-N-(2-(pyrrolidin-1-yl)ethyl)prop-2-en-1-amine], on mGFP-K-RASG12V, the half-inhibitory concentration (IC50) is 2.44 µM and the Emax came to 0.641. The “Cytotoxic at 30 μM” value in data set [4] was “Yes at 10 uM”.
`COc1cccc(C(=CCN(CCN2CCCC2)[C@H](C)c2ccc(F)cc2)c2cccc(OC)c2)c1` [PW357, (R)-N-(1-(4-Fluorophenyl)ethyl)-3,3-bis(3-methoxyphenyl)-N-(2-(pyrrolidin-1-yl)ethyl)prop-2-en-1-amine] yielded an Emax at mGFP-K-RASG12V of 0.497. For the same compound, in [4], the “Cytotoxic at 30 μM” value is “Yes at 10 uM”.
In the case of `COc1cc(C(=CCN(CCN2CCCC2)[C@H](C)c2ccc(F)cc2)c2cc(OC)c(OC)c(OC)c2)cc(OC)c1OC` [PW358, (R)-N-(1-(4-Fluorophenyl)ethyl)-N-(2-(pyrrolidin-1-yl)ethyl)-3,3-bis(3,4,5-trimethoxyphenyl)prop-2-en-1-amine], on mGFP-K-RASG12V, the IC50 was determined as 1.02 µM and the Emax stood at 0.938. Besides, in [4], the “Cytotoxic at 30 μM” value was “Yes”.
In the case of `C[C@H](c1ccc(F)cc1)N(C/C=C(/c1ccccc1)c1ccc(OC(F)(F)F)cc1)CCN1CCCC1` [PW361, (R,Z)-N-(1-(4-fluorophenyl)ethyl)-3-phenyl-N-(2-(pyrrolidin-1-yl)ethyl)-3-(4-(trifluoromethoxy)phenyl)prop-2-en-1-amine], on mGFP-K-RASG12V, the concentration for half-maximal inhibition (IC50) worked out at 0.725 µM and the Emax is 0.606. Also, in data set [4], the “Cytotoxic at 30 μM” value is “Yes at 3 uM”.
As to `COc1ccc(/C(=C\CN(CCN2CCCC2)[C@H](C)c2ccc(F)cc2)c2ccc(F)cc2)cc1` [PW454, (R,E)-3-(4-fluorophenyl)-N-(1-(4-fluorophenyl)ethyl)-3-(4-methoxyphenyl)-N-(2-(pyrrolidin-1-yl)ethyl)prop-2-en-1-amine], at mGFP-K-RASG12V, the IC50 worked out at 0.319 µM and the Emax turned out to be 0.771. The “Cytotoxic at 30 μM” value in data set [4] is “Yes at 10 uM”.
Taken in the same sequence, the figures for `C[C@H](c1ccc(F)cc1)N(C/C=C(/c1ccc(F)cc1)c1ccc(C(F)(F)F)cc1)CCN1CCCC1` [PW455, (R,E)-3-(4-fluorophenyl)-N-(1-(4-fluorophenyl)ethyl)-N-(2-(pyrrolidin-1-yl)ethyl)-3-(4-(trifluoromethyl)phenyl)prop-2-en-1-amine] were 1.86 µM, 0.821 and “Yes at 10 uM”.
Turning to `COc1ccc(/C(=C\CN(CCN2CCCC2)[C@H](C)c2ccc(F)cc2)c2ccccc2)cc1` [PW460, (R,Z)-N-(1-(4-fluorophenyl)ethyl)-3-(4-methoxyphenyl)-3-phenyl-N-(2-(pyrrolidin-1-yl)ethyl)prop-2-en-1-amine], on mGFP-K-RASG12V, the IC50 was 2.02 µM and the Emax is on record as 0.801. Also, the “Cytotoxic at 30 μM” value in [4] is reported as “Yes at 10 uM”.
At mGFP-K-RASG12V, `C[C@H](c1ccc(F)cc1)N(CC=C(c1ccccc1)c1ccccc1)CCNc1cc(-c2ccc(F)cc2)n[nH]1` [PW2100, (R)-N^1-(3,3-diphenylallyl)-N^2-(3-(4-fluorophenyl)-1H-pyrazol-5-yl)-N^1-(1-(4-fluorophenyl)ethyl)ethane-1,2-diamine] displayed an Emax of 0.414. The “Cytotoxic at 30 μM” value in data set [4] is given as “No”.
